Source: paper PMC11995724, “Antibiotic target discovery by integrated phenotypic and activity-based profiling of electrophilic fragments” (Cell chemical biology, 2025)

Assay: in vitro
Details: human, hek293t cells

| SMILES | viability at 48 h, 25 µM |
| --- | --- |
| C=CC(=O)NCc1cnc(N2CCOCC2)s1 [1-M03, N-{[2-(morpholin-4-yl)-1,3-thiazol-5-yl]methyl}prop-2-enamide] | 86.3% |
| C=CC(=O)NC1(c2cccc(F)c2)CCOCC1 [1-M04, N-[4-(3-fluorophenyl)oxan-4-yl]prop-2-enamide] | 71.1% |
| C=CC(=O)Nc1ccccc1-c1nnnn1C [1-M05, N-[2-(1-methyl-1H-1,2,3,4-tetrazol-5-yl)phenyl]prop-2-enamide] | 79.7% |
| C=CC(=O)NCCc1coc(-c2ccc(C)cc2)n1 [1-M06, N-{2-[2-(4-methylphenyl)-1,3-oxazol-4-yl]ethyl}prop-2-enamide] | 68.3% |
| C=CC(=O)NCc1ccc(-n2cccn2)cc1 [1-M07, N-{[4-(1H-pyrazol-1-yl)phenyl]methyl}prop-2-enamide] | 81.4% |
| C=CC(=O)NC1CCC(OCc2cc(C)no2)CC1 (centres unmarked) [1-M08, N-{4-[(3-methyl-1,2-oxazol-5-yl)methoxy]cyclohexyl}prop-2-enamide] | 86.5% |
| C=CC(=O)NC(C)c1nnnn1C1CC1 (centres unmarked) [1-M09, N-[1-(1-cyclopropyl-1H-1,2,3,4-tetrazol-5-yl)ethyl]prop-2-enamide] | 82.7% |
| C=CC(=O)N(CCO)c1ccc(C(=O)O)cc1 [1-M10, 4-[N-(2-hydroxyethyl)prop-2-enamido]benzoic acid] | 96.4% |
| C=CC(=O)NCc1ccnc(N2CCN(c3ccc(F)cc3)CC2)c1 [1-M11, N-({2-[4-(4-fluorophenyl)piperazin-1-yl]pyridin-4-yl}methyl)prop-2-enamide] | 71.6% |
| C=CC(=O)Nc1ncccn1 [1-M12, N-(pyrimidin-2-yl)prop-2-enamide] | 71.5% |
| C=CC(=O)Nc1cc2c(cc1Sc1ccccc1)OCCO2 [1-M13, N-[7-(phenylsulfanyl)-2,3-dihydro-1,4-benzodioxin-6-yl]prop-2-enamide] | 82.4% |
| C=CC(=O)NCc1cccc(-n2cccn2)n1 [1-M14, N-{[6-(1H-pyrazol-1-yl)pyridin-2-yl]methyl}prop-2-enamide] | 93.2% |
| C=CC(=O)Nc1ccccc1C1CC1(F)F (centres unmarked) [1-M15, N-[2-(2,2-difluorocyclopropyl)phenyl]prop-2-enamide] | 86.4% |
| C=CC(=O)Nc1cccc(C(O)C(F)(F)F)c1 (centres unmarked) [1-M16, N-[3-(2,2,2-trifluoro-1-hydroxyethyl)phenyl]prop-2-enamide] | 102% |
| C=CC(=O)NCC1CCCC(C2CC2)O1 (centres unmarked) [1-M17, N-[(6-cyclopropyloxan-2-yl)methyl]prop-2-enamide] | 88.7% |
| C=CC(=O)NCc1ccc(-n2ccnc2)cc1 [1-M18, N-{[4-(1H-imidazol-1-yl)phenyl]methyl}prop-2-enamide] | 90.9% |
| C=CC(=O)Nc1c(C)cnn1CC1CC1 [1-M19, N-[1-(cyclopropylmethyl)-4-methyl-1H-pyrazol-5-yl]prop-2-enamide] | 94.9% |
| C=CC(=O)Nc1ccc(C(=O)C(F)F)cc1 [1-M20, N-[4-(2,2-difluoroacetyl)phenyl]prop-2-enamide] | 104% |
| C=CC(=O)Nc1ncnc2c1cnn2Cc1cccc(C)c1 [1-M21, N-{1-[(3-methylphenyl)methyl]-1H-pyrazolo[3,4-d]pyrimidin-4-yl}prop-2-enamide] | 100% |
| C=CC(=O)NCc1nnnn1-c1ccc(F)cc1 [1-M22, N-{[1-(4-fluorophenyl)-1H-1,2,3,4-tetrazol-5-yl]methyl}prop-2-enamide] | 106% |
| C=CC(=O)NCc1ccccc1S(=O)(=O)NC [1-N03, N-{[2-(methylsulfamoyl)phenyl]methyl}prop-2-enamide] | 92.3% |

| SMILES | viability at 48 h, 25 µM |
| --- | --- |
| C=CC(=O)NC(C)c1cn(-c2ccccc2)nn1 (centres unmarked) [1-N04, N-[1-(1-phenyl-1H-1,2,3-triazol-4-yl)ethyl]prop-2-enamide] | 78.9% |
| C=CC(=O)N1CCc2c(nnn2CCOC)C1 [1-N05, 1-[1-(2-methoxyethyl)-1H,4H,5H,6H,7H-[1,2,3]triazolo[4,5-c]pyridin-5-yl]prop-2-en-1-one] | 105% |
| C=CC(=O)NCc1conc1C1CCC1 [1-N06, N-[(3-cyclobutyl-1,2-oxazol-4-yl)methyl]prop-2-enamide] | 69.5% |
| C=CC(=O)NCCc1c(C)oc2ccccc12 [1-N07, N-[2-(2-methyl-1-benzofuran-3-yl)ethyl]prop-2-enamide] | 119% |
| C=CC(=O)NC1CCN(Cc2ccc(Cl)cc2)CC1 [1-N08, N-{1-[(4-chlorophenyl)methyl]piperidin-4-yl}prop-2-enamide] | 101% |
| C=CC(=O)N(CC(C)(C)C)C1CCN(c2ccc(C#N)cn2)CC1 [1-N09, N-[1-(5-cyanopyridin-2-yl)piperidin-4-yl]-N-(2,2-dimethylpropyl)prop-2-enamide] | 105% |
| C=CC(=O)NC(C)(C)c1noc(CCC)n1 [1-N10, N-[2-(5-propyl-1,2,4-oxadiazol-3-yl)propan-2-yl]prop-2-enamide] | 91.9% |
| C=CC(=O)N1CCCC1c1cccc(C)c1 (centres unmarked) [1-N11, 1-[2-(3-methylphenyl)pyrrolidin-1-yl]prop-2-en-1-one] | 110% |
| C=CC(=O)Nc1ccc2c(=O)onc(C)c2c1 [1-N12, N-(4-methyl-1-oxo-1H-2,3-benzoxazin-6-yl)prop-2-enamide] | 1.1% |
| C=CC(=O)N(Cc1cccc(F)c1F)C1CCCC(F)(F)C1 (centres unmarked) [1-N13, N-(3,3-difluorocyclohexyl)-N-[(2,3-difluorophenyl)methyl]prop-2-enamide] | 136% |
| C=CC(=O)Nc1ccnn1Cc1cccc(Cl)c1 [1-N14, N-{1-[(3-chlorophenyl)methyl]-1H-pyrazol-5-yl}prop-2-enamide] | 1.05% |
| C=CC(=O)NC1CCN(Cc2ccccc2)C1 (centres unmarked) [1-N15, N-(1-benzylpyrrolidin-3-yl)prop-2-enamide] | 103% |
| C=CC(=O)N1CCC(c2ccc(OC)cc2)C1 (centres unmarked) [1-N16, 1-[3-(4-methoxyphenyl)pyrrolidin-1-yl]prop-2-en-1-one] | 92.1% |
| C=CC(=O)NC(C)c1nc(C2CCCCC2)no1 (centres unmarked) [1-N17, N-[1-(3-cyclohexyl-1,2,4-oxadiazol-5-yl)ethyl]prop-2-enamide] | 102% |
| C=CC(=O)N1CCC(c2nc3ccccc3o2)CC1 [1-N18, 1-[4-(1,3-benzoxazol-2-yl)piperidin-1-yl]prop-2-en-1-one] | 80.1% |
| C=CC(=O)N1CCN(C(=O)c2cc(C)no2)CC1 [1-N19, 1-[4-(3-methyl-1,2-oxazole-5-carbonyl)piperazin-1-yl]prop-2-en-1-one] | 102% |
| C=CC(=O)N1CCN(Cc2ccon2)CC1 [1-N20, 1-{4-[(1,2-oxazol-3-yl)methyl]piperazin-1-yl}prop-2-en-1-one] | 79.6% |
| C=CC(=O)N(C)Cc1ccncc1 [1-N21, N-methyl-N-[(pyridin-4-yl)methyl]prop-2-enamide] | 135% |
| C=CC(=O)NC1CN(C(C)=O)C1 [1-N22, N-(1-acetylazetidin-3-yl)prop-2-enamide] | 73.1% |
| C=CC(=O)Nc1c(C)ccc(Cl)c1CO [1-O03, N-[3-chloro-2-(hydroxymethyl)-6-methylphenyl]prop-2-enamide] | 67.5% |
